# Patent US20180179198A1, “TRICYCLIC MODULATORS OF TNF SIGNALING” (AbbVie Inc., priority 2015, published 2018)
# Molecular target: TNFα trimer (Homo sapiens, UniProt P01375)
# Test: TNFα FP Competitive Binding Assay
# Conditions: TNFα FP competitive binding assay; class symbols A/B/C; read-out: TNF IC50
# Protocol: TNFα FP Competitive Binding Assay
# • 1. Assay Buffer: Prepare 1× Assay Buffer (Water with 47 mM HEPES, 47 mM NaCl, 0.9 mM EDTA, 0.0071% Triton X-100) by adding 25 mL of 1 M HEPES, 5 mL of 5 M NaCl, 1 mL of 0.5 M EDTA, and 375 μL of a 10% Triton X-100 stock to a fresh 500 mL bottle of water. • 2. Assay Mixture: Prepare fresh Assay Mixture containing 20 nM TNFα trimer (60 nM protein) and 1 nM 2′,7′-difluoro-3′,6′-dihydroxy-N-(2-(2-(2-((4-(isoquinolin-8-yl)-3-(4-(isoquinolin-8-yl)phenethoxy)benzyl)oxy)ethoxy)ethoxy)ethyl)-3-oxo-3H-spiro[isobenzofuran-1,9′-xanthene]-5-carboxamide probe in 1× Assay Buffer.
# Compound Plate Preparation
# Manual 12-point 1:3 Dilution Plates: (384 well polypropylene plates)
# Top concentration of compounds, 10 mM in DMSO, dispensed in rows A-O in columns 1 and 13. Compounds are serially diluted 1:3 with DMSO in columns 2-12 or 14-24 using a 16-channel Matrix pipettor. Plates stored at −20° C.
# Discovery Preps 12-point 1:3 Dilution Plates: (384 well assay plates)
# Top concentration, 5 mM in DMSO, of compounds placed in rows A-O in columns 1 and 13. Compounds are serially diluted 1:3 with DMSO in columns 2-12 or 14-24. Compound solutions are dispensed into replicate assay plates at 410 nL per well. Plates stored at 4° C.
# TNFα FP Competitive Binding Assay Protocol
# • 1. Compound plates are warmed to rt. • 2. Fresh Assay Mixture is prepared. • 3. Assay Mixture (20 μL) is dispensed each well of 384 assay plates using a Thermo Multidrop Combi or 16-channel Matrix pipettor. If Manual 12-point 1:3 Dilution Plates are to be tested, Assay Mix is dispensed into empty plates. Discovery Preps 12-point 1:3 Dilution Plates already contain 410 nL compound solution in DMSO. • 4. For Manual 12-point 1:3 Dilution Plates, 0.7 μL is manually transferred using a 16-channel Matrix pipettor to replicate assay plates containing 20 μL Assay Mixture for a final top compound concentration of 338 μM (3.4% DMSO). • 5. For Discovery Preps 12-point 1:3 Dilution Plates, 20 μL Assay Mixture added the 410 nL compound solution already in the plates yields a final top compound concentration of 100 μM (2.0% DMSO). • 6. Background subtraction controls are wells P1-P8 containing only Assay Buffer. The low % inhibition controls are wells P9-P16 containing only Assay Mix. The high % inhibition are wells P17-P24 containing only 1 nM 2′,7′-difluoro-3′,6′-dihydroxy-N-(2-(2-(2-((4-(isoquinolin-8-yl)-3-(4-(isoquinolin-8-yl)phenethoxy)benzyl)oxy)ethoxy)ethoxy)ethyl)-3-oxo-3H-spiro[isobenzofuran-1,9′-xanthene]-5-carboxamide probe in 1× Assay Buffer. • 7. Plates are incubated at […] for 18-24 h in 37° C. incubator (CO2 is off). • 8. Prior to reading the assay, the plates are placed in a dark cabinet to equilibrate at rt for one hour. • 9. Background-subtracted fluorescence polarization (mP) is measured using a PerkinElmer Envision plate reader. • 10. Raw data is entered into Assay Explorer and dose-response curves are generated using a variable slope curve.
# TNFα trimer, sequence (P01375 77-233 limits assumed): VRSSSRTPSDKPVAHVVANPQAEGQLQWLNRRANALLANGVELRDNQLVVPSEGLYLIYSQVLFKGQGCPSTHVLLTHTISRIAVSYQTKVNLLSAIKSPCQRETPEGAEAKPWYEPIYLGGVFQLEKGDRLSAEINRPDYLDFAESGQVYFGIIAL
row,Structure (SMILES),IC50
1,O=C1NCC2CN(c3ncc(-c4ccc5nc6n(c5c4)C4(CCc5ccccc54)COC6)cn3)CCN12 (centres unmarked) [V.3],< 1 µM
2,c1ccc2c(c1)CCC21COCc2nc3ccc(-c4cnc(N5CCOCC5)nc4)nc3n21 (centres unmarked) [AV.8],< 1 µM
3,c1ccc(C2COCc3nc4ccc(-c5ccc(N6CCNCC6)nc5)cc4n32)cc1 (centres unmarked) [T.10],1 to 10 µM
4,COc1ccccc1C1CCCc2nc3ccc(-c4cnc(N5CCN6C(=O)NCC6C5)nc4)cn3c21 (centres unmarked) [AJ.6],< 1 µM
5,OC1(c2ncc(-c3ccc4nc5n(c4c3)[C@@H](c3ccccc3)CC5)cn2)COC1 [AA.3],< 1 µM
6,COc1ccccc1C1CCCc2nc3ccc(-c4cnc(N5CCC(C)(O)CC5)nc4)cn3c21 (centres unmarked) [AJ.5],< 1 µM
7,COc1ccccc1C1CCCc2nc3ccc(-c4cnc(N5CCCOCC5)nc4)cn3c21 (centres unmarked) [AJ.7],< 1 µM
8,Cc1ccc(C)c([C@H]2CCc3nc4ccc(-c5cnc(C(C)(C)O)nc5)cc4n32)c1 [Y.8],< 1 µM
9,c1ccc([C@H]2CCc3nc4ccc(-c5ccnc(OC6CCC67CCNC7)c5)nc4n32)cc1 (some centres unmarked) [AT.3],1 to 10 µM
10,COc1ccccc1[C@H]1CCc2nc3ccc(-c4cnc(N5CCC(O)CC5)nc4)nc3n21 [AO.3],< 1 µM
11,c1nc(N2CCOCC2)ncc1-c1ccc2nc3c(n2n1)C1(CCCCC1)OCC3 [AY.1],1 to 10 µM
12,OC1CCCN(c2ncc(-c3ccc4nc5n(c4n3)C3(CCc4ccccc43)COC5)cn2)CC1 (centres unmarked) [AV.9],< 1 µM
13,OC(c1ncc(-c2ccc3nc4n(c3n2)[C@@H](c2ccccc2)CC4)cn1)C1CCOCC1 (some centres unmarked) [AL.3],1 to 10 µM
14,COc1ncc(-c2ccc3nc4n(c3c2)C(c2ccccc2)COC4)cc1F (centres unmarked) [T.1],1 to 10 µM
15,C[C@@H]1CN(c2ncc(-c3ccc4nc5n(c4n3)C3(COC5)COc4ccccc43)cn2)CCN1C(=O)CO (some centres unmarked) [BH.3],< 1 µM
16,CC(C)(O)c1ncc(-c2ccc3nc4n(c3n2)[C@]2(CCOc3ccccc32)COC4)cn1 [Y.14],< 1 µM
17,c1ccc2c(c1)OCCC21OCCc2nc3ccc(-c4cnc(N5CCOCC5)nc4)nn3c21 (centres unmarked) [AY.2],< 1 µM
18,COc1ccccc1C1CCc2nc3ccc(-c4cnc(N5CCOCC5)nc4)cn3c21 (centres unmarked) [AG.1],< 1 µM
19,COc1ccccc1[C@H]1CCCc2nc3ccc(-c4cnc(C(C)(C)O)nc4)cn3c21 [Y.6],< 1 µM
20,"C[C@H]1CN(C(=O)COC(C)(C)C)CCN1c1ncc(-c2ccc3nc4n(c3n2)C2(COC4)COc3ccccc32)cn1 (stereo partly drawn) [BG.4, 1-((3S)-4-(5-(2H,6′H,8′H-Spiro[benzofuran-3,9′-pyrido[3′,2′:4,5]imidazo[2,1-c][1,4]oxazin]-2′-yl)pyrimidin-2-yl)-3-methylpiperazin-1-yl)-2-(tert-butoxy)ethan-1-one]",1 to 10 µM

# Next, values leading:
row,IC50,Structure (SMILES)
1,1 to 10 µM,O=c1cc(-c2ccc3nc4n(c3n2)[C@@H](c2ccccc2)CC4)ccn1CC1CCOCC1 [AW.3]
2,1 to 10 µM,c1ccc([C@H]2CCc3nc4ccc(-c5ccnc(OCC6COC6)c5)nc4n32)cc1 [AQ.5]
3,1 to 10 µM,O[C@H]1CC[C@@H](Oc2cc(-c3ccc4nc5n(c4n3)[C@@H](c3ccccc3)CC5)ccn2)CC1 [AR.1]
4,1 to 10 µM,CC(C)Oc1ccc(-c2ccc3nc4n(c3c2)C(c2ccccc2)COC4)cn1 (centres unmarked) [T.5]
5,< 1 µM,COc1ccccc1C1CCCCc2nc3ccc(-c4cnc(C(C)(C)O)nc4)cn3c21 (centres unmarked) [S.4]
6,< 1 µM,c1ccc(C2COCc3nc4ccc(-c5ccc(N6CCOCC6)nc5)cc4n32)cc1 (centres unmarked) [T.25]
7,< 1 µM,COc1ccccc1C1CCc2nc3ccc(-c4cnc(N5CCC(O)CC5)nc4)nc3n21 (centres unmarked) [AD.1]
8,< 1 µM,OC1CCC(Oc2cc(-c3ccc4nc5n(c4n3)[C@@H](c3ccccc3)CC5)ccn2)C1 (some centres unmarked) [AQ.1]

# Same assay, conditions: fluorescence polarization competition; 20 nM TNFα trimer, 1 nM OregonGreen488 probe; read-out: TNF IC50 (TNFα FP binding assay IC50)
row,Structure (SMILES),IC50
1,CC1(C)C=C(c2ccc3nc4n(c3n2)[C@@H](c2ccccc2)CC4)CN1 [Example 62],10 to 100 µM
2,O=C1CN(c2ncc(-c3ccc4nc5n(c4c3)C(c3ccccc3)CCC5)cn2)CCN1 (centres unmarked) [H.3],1 to 10 µM
3,N#CCOc1ccc(-c2ccc3nc4n(c3c2)C(c2ccccc2)CC4)cc1 (centres unmarked) [A.34],1 to 10 µM
4,CC(C)(O)c1ncc(-c2ccc3nc4n(c3n2)C(c2ccccc2)CC4)cn1 (centres unmarked) [L.1],< 1 µM
5,OC1CCN(c2ncc(-c3ccc4nc5n(c4c3)[C@@H](c3ccccc3)CC5)cn2)CC1(F)F (some centres unmarked) [F.2],< 1 µM
6,"O[C@H]1CC[C@H](Oc2cc(-c3ccc4nc5n(c4n3)[C@@H](c3ccccc3)CC5)ccn2)CC1 [Example 83, (1R,4R)-4-((4-((R)-8-Phenyl-7,8-dihydro-6H-pyrrolo[2′,1′:2,3]imidazo[4,5-b]pyridin-2-yl)pyridin-2-yl)oxy)cyclohexanol]",< 1 µM
7,CNC(=O)c1ccc(-c2ccc3nc4n(c3c2)C(c2ccccc2)CC4)cc1 (centres unmarked) [A.40],1 to 10 µM
8,"CC(C)[C@H](N)C(=O)OC1CCN(c2ncc(-c3ccc4nc5n(c4n3)[C@@H](c3ccccc3)CC5)cn2)CC1 [Example 46, (S)-1-(5-((R)-8-Phenyl-7,8-dihydro-6H-pyrrolo[2′,1′:2,3]imidazo[4,5-b]pyridin-2-yl)pyrimidin-2-yl)piperidin-4-yl 2-amino-3-methylbutanoate]",1 to 10 µM
9,"COc1ccccc1[C@H]1CCc2nc3ccc(-c4cnc(C(C)(C)O)nc4)cn3c21 [Example 12, (R)-2-(5-(1-(2-methoxyphenyl)-2,3-dihydro-1H-cyclopenta[4,5]imidazo[1,2-a]pyridin-7-yl)pyrimidin-2-yl)propan-2-ol]",< 1 µM
10,CC(C)(O)c1ncc(-c2ccc3nc4n(c3n2)C(c2ccccc2)CCC4)cn1 (centres unmarked) [O.2],< 1 µM
11,COc1ccccc1C1CCc2nc3ccc(-c4cnc(C(C)(C)O)nc4)cc3n21 (centres unmarked) [E.3],< 1 µM

# Continued, values first:
row,IC50,Structure (SMILES)
1,1 to 10 µM,"CC(C)(O)c1ncc(-c2ccc3nc4n(c3n2)C2(CCc3ccccc32)COC4O)cn1 (centres unmarked) [Example 72, 2′-(2-(2-Hydroxypropan-2-yl)pyrimidin-5-yl)-2,3-dihydro-6′H,8′H-spiro[indene-1,9′-pyrido[3′,2′:4,5]imidazo[2,1-c][1,4]oxazin]-6′-ol]"
2,< 1 µM,"CC(C)(O)c1ncc(-c2ccc3nc4n(c3n2)C2(COC4)COc3ccccc32)cn1 (centres unmarked) [E.4, 2-(5-(6′,8′-Dihydro-2H-spiro[benzofuran-3,9′-pyrido[3′,2′:4,5]imidazo[2,1-c][1,4]oxazin]-2′-yl)pyrimidin-2-yl)propan-2-ol]"
3,1 to 10 µM,CN1CCC(C2CCN(c3ncc(-c4ccc5nc6n(c5c4)[C@@H](c4ccccc4)COC6)cn3)CC2)CC1 [G.21]
4,1 to 10 µM,"CC(C)(O)c1ncc(-c2ccc3nc4n(c3n2)C(c2ccccn2)CC4)cn1 (centres unmarked) [Example 29, 2-(5-(8-(Pyridin-2-yl)-7,8-dihydro-6H-pyrrolo[2′,1′:2,3]imidazo[4,5-b]pyridin-2-yl)pyrimidin-2-yl)propan-2-ol]"
5,< 1 µM,COc1ccccc1C1CCCc2nc3ccc(-c4ccc(OCC(=O)O)nc4)cn3c21 (centres unmarked) [R.1]
6,1 to 10 µM,Cc1cccc(C2(O)CCCc3nc4ccc(-c5cnc(N6CCOCC6)nc5)cn4c32)c1 (centres unmarked) [I.3]
7,1 to 10 µM,c1ccc(C2CCc3nc4ccc(-c5cnn(Cc6cccnc6)c5)cc4n32)cc1 (centres unmarked) [A.21]
8,< 1 µM,"O=C1NC[C@@H]2CN(c3ncc(-c4ccc5nc6n(c5c4)[C@@H](c4ccccc4)CC6)cn3)CCN12 [Example 24, (R)-7-(5-((R)-1-Phenyl-2,3-dihydro-1H-benzo[d]pyrrolo[1,2-a]imidazol-7-yl)pyrimidin-2-yl)hexahydroimidazo[1,5-a]pyrazin-3(2H)-one]"
9,< 1 µM,"c1ccc2c(c1)OCC21COCc2nc3ccc(-c4cnc(N5CCOCC5)nc4)nc3n21 (centres unmarked) [Example 51, 2′-(2-Morpholinopyrimidin-5-yl)-6′,8′-dihydro-2H-spiro[benzofuran-3,9′-pyrido[3′,2′:4,5]imidazo[2,1-c][1,4]oxazine]]"
10,1 to 10 µM,OC1(c2cccc(F)c2)CCCc2nc3ccc(-c4cnc(N5CCOCC5)nc4)cn3c21 (centres unmarked) [I.4]
11,< 1 µM,"O=C1NCC2CN(c3ncc(-c4ccc5nc6n(c5n4)[C@@H](c4ccccc4)CC6)cn3)CCN12 (single isomer, unassigned) [Example 30]"
